Data published in patent US10849935B2, “Method to suppress the systemic toxicity of chemotherapeutic drugs” (United Arab Emirates University, priority 2013, dated 2020).
Values joined by “and” are separate entries in the source; they are usually repeats but may differ in a detail not shown here. Identical values can stand only once. Like-named read-outs stand apart in the source and are kept apart here.

What was measured:
[1] = system: 4T1 metastatic breast cancer; assay: 4T1 metastatic breast adenocarcinoma model: growth and survival; assay type: in vivo, BALB/c mice
Method: Two different syngeneic tumor models were used in this study, namely, MC38 colorectal cancer and 4T1 metastatic breast adenocarcinoma.
For the 4T1 breast cancer cells, BALB/c mice were implanted orthotopically in the mammary fat pad with 1×10^6 cancer cells/mouse.
For the colon and breast cancer models, mice bearing tumors were treated with (1) saline (control), (2) manuka honey (50% w/v), (3) Oxaliplatin at 6 mg/kg or (4) manuka honey (50% w/v)+Oxaliplatin (6 mg/kg). The manuka honey (50% w/v) was given intravenously (i.v.) twice per week. Oxaliplatin 6 mg/kg was administered intraperitoneally (i.p.) once per week. The total treatment period was 3 weeks.

[2] = system: caspase 3/7 in B16.F1 melanoma cells; assay: Caspase 3/7 enzymatic activity in treated cells; assay type: cell-based, mouse; details: paclitaxel 10 ng/ml, 24 hr
Method: (§1) B16.F1 melanoma cells were treated with manuka honey (5% w/v), taxol (10 or 50 ng/ml) or medium as control. After 24 hr of culture, enzymatic activity of caspase 3/7 (FIG. 3A) and caspase 8 (FIG. 3B) were determined using specific kits and following manufacturer's recommendation. The data is presented as fold increase in caspase activity after normalization to the number of viable cells per culture. FIG. 3C. Western blot analysis of caspase-9 activation B16.F1 cells treated with manuka honey or taxol. […] Protein extracts were resolved on 10% SDS-PAGE and immunoblotted with caspase-9-specific ployclonal antibody capable of detecting both full length and cleaved forms of caspase-9. The cell extracts were also probed with an antibody against β-actin as a control for protein loading.
(§2) A critical component for the initiation of the apoptosis pathway is the sequential recruitment of a number of caspases leading to the activation of the effector caspase-3. This, in turn, leads to the cleavage of a number of vital cellular substrates required for cell viability. Next explored was the mechanism of apoptosis induction in manuka honey-treated cancer cells.

[3] = system: Bcl-2 in B16.F1 cells; assay: Western blot of Bcl-2 expression; assay type: cell-based, mouse; details: taxol 50 ng/ml
Method: (§3) FIGS. 4A-4C. Manuka honey induces late apoptotic events in cancer cells. FIG. 4A. B16.F1 cells were incubated for 24 hr or 72 hr in the absence or presence of Manuka honey (M; 5%) or taxol (T; 50 ng/ml). Whole cell extracts (100 μg/lane) were resolved on 10% SDS-PAGE followed by Western blotting with an antibody specific to Bcl-2. FIG. 4 B. Cells were treated for 24 hr or 72 hr with the indicated concentrations of manuka honey (0.6%-5.0%) or taxol (50 ng/ml). Whole cell extracts (100 μg/lane) were resolved on 10% SDS-PAGE followed by Western blotting with a PARP-specific antibody. The full-length (116 kD) and cleaved (89 kD) forms of PARP are indicated. The cell extracts were also probed with an antibody against β-actin as a control for loading. FIG. 4C. Following treatment for 72 hr, cells were lysed and DNA extracted by centrifugation and phenol-chloroform extraction. Extracted DNA was resolved on 1.5% agarose gel and stained with ethidium bromide to visualize the oligonucleosomal fragments. The results are representative of two independent experiments.
Bcl-2 is a member of a large family of cell survival-regulating proteins consisting of both proand anti-apoptotic regulators. […] Therefore the level of Bcl-2 expression in B16.F1 cells following treatment with manuka honey or taxol was determined.

[4] = system: glutathione (GSH) in liver, spleen and kidney; details: 2 injections per week for 3 weeks
Method: Animals were treated with saline, paclitaxel, manuka honey or manuka honey plus paclitaxel. At the end of a 3-week treatment, animals were sacrificed and organs removed for toxicity determination. The levels of glutathione (GSH) in the liver (FIG. 12A) spleen (FIG. 12B) and kidney (FIG. 12C) were determined. The data represent the mean±SEM of a minimum of 3 determinations per experimental group. For all panels, asterisks denote significant differences between the indicated groups (*, p<0.05; **, p<0.01; ***, p<0.001).
Groups of mice were injected with manuka honey, paclitaxel, manuka honey plus paclitaxel or saline for a total period of 3 weeks (2 injections per week). The animals were then sacrificed and their organs (liver, spleen, and kidney) obtained and analyzed for the levels of glutathione (GSH), a major antioxidant effector.

[5] = system: caspase-9 in B16.F1 cells; assay: Western blot of caspase-9 activation; assay type: cell-based, mouse; details: paclitaxel 10 ng/ml, 24 hr
Method: as §1

[6] = system: B16.F1 melanoma tumor; details: for inhibition of tumor growth vs saline control: day 18 post treatment
Method: The activity of manuka honey was evaluated in B16.F1 melanoma tumor model. Mice were divided in four groups and treated by intravenous administration (100-200 μl 2 times per week for up to 3 weeks) of manuka honey alone, at either 5%, 10% or 20% w/v, or saline as a control. Tumor volume and animal survival were followed for up to 3 weeks post treatment initiation.
The antitumor activity of manuka honey was evaluated in the syngeneic B16.F1 melanoma tumor model. C57BL/6 mice with established tumors (mean>50 mm3) were divided into four groups and treated by intravenous administration (2 times per week for up to 3 weeks) of manuka honey alone (50% w/v), taxol alone (10 mg/kg), manuka honey (50% w/v) plus taxol (10 mg/kg) or saline as a control. Tumor volume and animal survival were followed for up to 3 weeks post treatment initiation. […] The effect of the various treatments on animal survival was also followed (FIG. 8B).
C57BL/6 mice with established tumors (mean>50 mm^3) were divided into four groups and treated by intravenous administration (2 times per week for up to 3 weeks) of manuka honey alone (50% w/v), taxol alone (5 mg/kg), manuka honey (50% w/v) plus taxol (5 mg/kg) or saline as a control. Tumor volume and animal survival were followed for up to 3 weeks post treatment initiation.
In a further experiment the mice were divided into four groups and treated by intravenous administration (2 times per week for up to 3 weeks) of manuka honey alone (50% w/v), taxol alone (8 mg/kg), manuka honey (50% w/v) plus taxol (8 mg/kg) or saline as a control. Tumor volume and animal survival were followed for up to 3 weeks post treatment initiation.
One syngeneic tumor model was used in this study, namely the B16.F1 melanoma (skin cancer) model. […] The procedure for tumor implantation is briefly as follows, C57BL/6 (8-10 mice per group) were inoculated subcutaneously in the right flank with 2×10^5 B16.F1 melanoma cells and staged to day 12-14.
Tumor growth was followed by quantitative determination of tumor volume, measured as the product of the perpendicular diameters using digital calipers, according to the formula: volume=L×W^2/2. For the B16.F1 model, once tumors were established, mice were given intravenous (i.v.) doses (100 μl per injection) of (1) saline (control), (2) 50% (w/v) manuka honey (MH) suspension in sterile saline, (3) paclitaxel (at doses of 5 or 8 mg/kg body weight) or (4) MH (50% w/v)+paclitaxel. All treatments were routinely administered twice per week, using freshly prepared reagents. Tumor growth and animal survival were followed for the subsequent 50 days.

[7] = system: B16.F1 cells; assay: Annexin V-FITC / PI flow cytometry (apoptosis); assay type: cell-based, mouse; details: taxol 10 ng/ml, 24 hr
From the text: The results are representative of three independent experiments.

[8] = system: caspase 8 in B16.F1 melanoma cells; assay: Caspase 8 enzymatic activity in treated cells; assay type: cell-based, mouse; details: paclitaxel 10 ng/ml, 24 hr
Method: as §1, §2

[9] = system: B16.F1 melanoma cells; assay: Cell viability, CellTiter-Glo luminescent assay, B16.F1
Method: Skin cancer cells (B16.F1 cell line) (FIGS. 1A-1C), colon cancer cells (CT26 cell line) (FIGS. 1D, 1E) and breast cancer cells (MCF-7 cell line) (FIGS. 1F, 1G) were plated at 5×10^3 cells per well and incubated for 24 hr (FIGS. 1A, 1D, 1F), 48 hr (FIG. 1B) or 72 hr (FIGS. 1C, 1E, 1G) in the absence or presence of the indicated concentrations of manuka honey (range 0.3% to 5.0% w/v), or taxol (10 ng/ml or 50 ng/ml final concentration). At the end of the incubation period, cell viability was determined using CellTiter-Glo luminescent assay. Results are expressed as percentage viability in treated cell cultures compared to control, untreated, cells and are representative of 3 (for B16.F1 cells) or 2 (for CT26 and MCF-7 cells) independent experiments. Asterisks denote statistically significant differences in viability of experimental groups compared to control (*, p<0.05; **, p<0.01; ***, p<0.001).
The potential effect of manuka honey on cancer cell proliferation was investigated using three tumor cell lines differing in type and origin, the murine melanoma (B16.F1) and colon carcinoma (CT26) cells and the human breast cancer (MCF-7) cell line. Cells were incubated with different concentrations of manuka honey (range 0.3 to 2.5% w/v) for 24-72 hrs. As a positive control, cells were cultured with taxol at a final concentration of 10 or 50 ng/ml.

[10] = system: PARP in B16.F1 cells; assay: Western blot of PARP cleavage; assay type: cell-based, mouse; details: taxol 50 ng/ml, 24 hr
Method: as §3
One of the target proteins for active caspase-3 is the DNA repair enzyme poly(ADP-ribose) polymerase (or PARP). […]

[11] = system: caspase 3-positive (apoptotic) tumor cells; assay: Caspase 3 immunohistochemistry of tumor sections; assay type: in vivo; details: tumors of treated melanoma-bearing mice, mean±SEM
Method: Tumor tissue sections were prepared after treatment with saline (FIG. 11A), manuka honey (FIG. 11B), paclitaxel (FIG. 11C) or manuka honey+paclitaxel (FIG. 11D) and stained using caspase 3-specific antibody. Representative images at high magnification (bar=50 μm) are shown. Arrows indicate representative, brown-staining, apoptotic cells. Necrotic regions are also indicated (n). The results are representative of two independent experiments. (FIG. 11E) Quantitative estimation of the number of caspase-3 positive cells in tumor sections of different treatment groups. The data is shown as the mean±SEM of the number of positive cells per high power field. Tumors were obtained from 2-3 mice per treatment group and multiple sections were made from each tumor tissue. The number of positive cells was determined by counting the number of cells in 20 high power fields per section.
Tumor tissue sections were prepared from tumors obtained from animals treated with manuka honey, paclitaxel, manuka honey plus paclitaxel or saline as control. […] By counting the number of caspase 3-positive cells in a random selection of 10-20 high power fields (hpf), a quantitative estimate of apoptotic cell number could be achieved.

[12] = manuka honey 50% w/v, taxol 10 mg/kg, i.v. 2 times per week

O=C1[O][Pt]2([NH][C@@H]3CCCC[C@H]3[NH]2)[O]C1=O [Oxaliplatin]
effect on cancer growth and animal survival ([1]; Oxaliplatin 6 mg/kg, MH 50% w/v): only a marginal effect on cancer growth and animal survival
percentage survival ([1]; day 50, Oxaliplatin 6 mg/kg i.p. once per week, manuka honey 50% w/v i.v. twice per week, 3 weeks): 22%

CC(=O)O[C@H]1C(=O)[C@@]2(C)[C@H]([C@H](OC(=O)c3ccccc3)[C@]3(O)C[C@H](OC(=O)[C@H](O)[C@@H](NC(=O)c4ccccc4)c4ccccc4)C(C)=C1C3(C)C)[C@]1(OC(C)=O)CO[C@@H]1C[C@@H]2O [taxol, paclitaxel]
increase in caspase 3/7 activity [2]: 2 fold
Bcl-2 expression ([3]; 24 hr): substantially decreased
Bcl-2 expression ([3]; 72 hr): undetectable
organ GSH levels (liver, spleen, kidney) [4]: marked decrease in organ GSH levels
induction of caspase-9 [5]: No evidence for induction of caspase-9
inhibition of tumor growth vs saline control [6, 12]: ~61%
inhibition of tumor growth vs saline control ([6]; manuka honey 50% w/v, taxol 10 mg/kg, i.v. 2 times per week, listed as paclitaxel): 60% and 61%
survival of tumor-bearing mice ([6]; day 25, paclitaxel 5 mg/kg, MH 50% w/v): no significant difference in animal survival
percentage survival ([6]; day 25, paclitaxel 8 mg/kg, manuka honey 50% w/v): 36% and 36.4%
overall survival at end of observation period ([6]; day 25 post treatment, manuka honey 50% w/v, taxol 10 mg/kg): 20%
day after initiation of treatment at which inhibition/delay of tumor growth was first observed [6, 12]: 7 days
effect on tumor growth (FIG. 13) ([6]; paclitaxel 5 mg/kg, MH 50% w/v, i.v. twice per week): no effect of tumor growth
effect on tumor growth (FIGS. 17, 18) ([6]; paclitaxel 8 mg/kg, MH 50% w/v, i.v. twice per week): intermediate effect on reducing tumor growth
median survival ([6]; post treatment, manuka honey 50% w/v, taxol 10 mg/kg, i.v. 2 times per week): 20 days
tumor volume and survival vs saline (FIG. 9) ([6]; taxol 5 mg/kg, manuka honey 50% w/v, i.v. 2 times per week, 14 days post-treatment): ineffective at reducing tumor volume
Annexin V-positive (apoptotic) cells [7]: 32.8%
late apoptotic cells (positive for both Annexin V-FITC and PI), % of total [7]: 3.9%
increase in caspase-8 activity [8]: 2 fold
viability of B16.F1 cells, % of control ([9]; taxol 10 ng/ml, 24 hrs): 90%
viability of B16.F1 cells, % of control ([9]; taxol 10 ng/ml, 72 hrs): 64%
viability of B16.F1 cells, % of control ([9]; taxol 50 ng/ml, 24 hrs): 83%
viability of B16.F1 cells, % of control ([9]; taxol 50 ng/ml, 72 hrs): 34%
cleavage of PARP into the 89 kD fragment [10]: cleavage of PARP into the 89 kD fragment was evident
number of caspase 3-positive cells per high power field in tumor sections [11]: 11.7±1.8 per hpf
